The target of this assay is T1, NLRP3 inflammasome (Homo sapiens, UniProt Q96P20).
T1 construct: host or cells: THP1-Null cells (PMA-differentiated, LPS-primed, nigericin-stimulated)
The experiment in a line: Evaluation of NLRP3 inflammasome inhibitory activity (inhibition of IL-1β production in LPS/Nigericin-stimulated THP1-Null cells, AlphaLISA). It is filed as cell-based. Conditions: IL-1β production in THP1-Null cells; for IC50: PMA, 1 µg/mL Lipopolysaccharides 3 hours, Nigericin 7.5 µmol/L 1.5 hours, read-out: IC50. The essentials:
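THP1-Null cells were primed with 1 µg/mL LPS, then given test compound and stimulated with nigericin. IL-1β in the culture supernatant was quantified by AlphaLISA. Inhibition was calculated with blank wells set as 100% and control wells as 0%.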
A general note: Bead proximity is the source of the signal in Alpha formats.

Molecules are shown by their SMILES.

T1 sequence (Q96P20 whole entry): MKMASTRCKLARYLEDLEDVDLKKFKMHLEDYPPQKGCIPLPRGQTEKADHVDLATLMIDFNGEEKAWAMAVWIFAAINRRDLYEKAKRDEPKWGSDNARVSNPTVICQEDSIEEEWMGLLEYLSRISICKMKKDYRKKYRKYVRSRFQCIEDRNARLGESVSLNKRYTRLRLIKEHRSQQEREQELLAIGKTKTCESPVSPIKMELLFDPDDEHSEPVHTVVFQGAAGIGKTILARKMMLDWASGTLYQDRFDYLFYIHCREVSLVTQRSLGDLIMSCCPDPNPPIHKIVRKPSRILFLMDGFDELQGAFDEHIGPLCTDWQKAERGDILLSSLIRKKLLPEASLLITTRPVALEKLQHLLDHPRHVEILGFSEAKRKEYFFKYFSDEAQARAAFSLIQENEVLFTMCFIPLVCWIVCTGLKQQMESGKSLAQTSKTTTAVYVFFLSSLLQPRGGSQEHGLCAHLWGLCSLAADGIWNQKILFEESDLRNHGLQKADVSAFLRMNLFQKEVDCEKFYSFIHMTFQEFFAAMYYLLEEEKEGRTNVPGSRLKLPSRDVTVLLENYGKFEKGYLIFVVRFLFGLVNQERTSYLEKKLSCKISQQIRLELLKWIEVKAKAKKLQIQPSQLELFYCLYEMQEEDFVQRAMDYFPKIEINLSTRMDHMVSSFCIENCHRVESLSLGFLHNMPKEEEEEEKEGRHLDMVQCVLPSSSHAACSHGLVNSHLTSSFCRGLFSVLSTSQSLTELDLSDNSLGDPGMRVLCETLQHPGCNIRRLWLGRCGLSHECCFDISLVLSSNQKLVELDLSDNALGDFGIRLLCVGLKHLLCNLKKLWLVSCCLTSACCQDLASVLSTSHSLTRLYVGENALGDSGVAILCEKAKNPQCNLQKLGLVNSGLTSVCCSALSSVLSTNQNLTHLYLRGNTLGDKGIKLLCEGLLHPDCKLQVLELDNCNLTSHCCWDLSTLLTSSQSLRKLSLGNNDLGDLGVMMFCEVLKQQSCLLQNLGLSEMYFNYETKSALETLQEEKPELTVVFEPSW

As to `Cc1cc(OC(F)F)cc(C)c1-n1cc2c(=O)[nH]c(COC(F)F)nc2n1` [Example 148], the IC50 – broadly, the concentration at which inhibition is half-maximal – came out at 0.061 µM.
On the same count and under the same terms, the same measure for `Cc1cc(C(C)(F)F)cc(C)c1-n1cc2c(=O)[nH]c(C3=CCOCC3)nc2n1` [Example 153]: 0.017 µM; for `Cc1cc(OC(F)F)cc(C)c1-n1cc2c(=O)[nH]c(C3(F)CC3)nc2n1` [Example 159]: 0.057 µM; for `Cc1cc(Br)cc(C)c1-n1cc2c(=O)[nH]c(CC3CC3)nc2n1` [Example 161]: 0.01 µM.
The same measure, in the same setting: the same measure for `Cc1cc(C(C)(F)F)cc(C)c1-n1cc2c(=O)[nH]c(C3(F)CC3)nc2n1` [Example 162]: 0.057 µM.
The same measure, in the same setting: with `Cc1cc(OC(F)F)cc(C)c1-n1cc2c(=O)[nH]c(CC3CC3)nc2n1` [Example 164] the figure was 0.067 µM.
Take `Cc1cc(OC(F)F)cc(C)c1-n1cc2c(=O)[nH]c(C3=COCC3)nc2n1` [Example 175]: at 0.002 µM the inhibition (test compound at 0.002 µM) was 54%.
`CCc1nc2nn(-c3c(C)cc(OC(F)F)cc3C)cc2c(=O)[nH]1` [Example 180]: the IC50 was found to be 0.02 µM.
Same read-out and setting: the same measure for `CCc1nc2nn(-c3c(C)cc(C(C)(F)F)cc3C)cc2c(=O)[nH]1` [Example 181]: 0.018 µM; for `Cc1cc(Br)cc(C)c1-n1cc2c(=O)[nH]c([C@H]3CCOCCO3)nc2n1` [Example 185]: 0.023 µM; for `Cc1cc(Br)cc(C)c1-n1cc2c(=O)[nH]c([C@@H]3CCOCCO3)nc2n1` [Example 186]: 0.087 µM.
Still for that read-out and setting: with `CCc1nc2nn(-c3c(C)cc(C4(F)CC4)cc3C)cc2c(=O)[nH]1` [Example 192] the figure was 0.02 µM; with `Cc1cc(C2CC2)cc(C)c1-n1cc2c(=O)[nH]c(C(=O)N(C)C)nc2n1` [Example 195], 0.18 µM; with `CNC(=O)c1nc2nn(-c3c(C)cc(C4CC4)cc3C)cc2c(=O)[nH]1` [Example 196], 0.022 µM.
Still for that read-out and setting: with `O=c1[nH]c(C2CC2)nc2nn(-c3ccc(C4CC4)cc3C(F)(F)F)cc12` [Example 198] the figure was 0.011 µM; with `Cc1cc(C2CC2)cc(C)c1-n1cc2c(=O)[nH]c(C#N)nc2n1` [Example 199], 0.24 µM.
Take `COCc1nc2nn(-c3c(C)cc(C(C)(F)F)cc3C)cc2c(=O)[nH]1` [Example 200]: the IC50 turned out to be 0.075 µM.
Regarding `Cc1cc(C2CC2)cc(C)c1-n1cc2c(=O)[nH]c(C(=O)NC3COC3)nc2n1` [Example 201], the IC50 was found to be 0.74 µM.
The same measure, in the same setting: the same measure for `Cc1cc(C(C)(F)F)cc(C)c1-n1cc2c(=O)[nH]c(COC(F)F)nc2n1` [Example 202]: 0.04 µM; for `Cc1cc(C2CC2)cc(C)c1-n1cc2c(=O)[nH]c(C(N)=O)nc2n1` [Example 203]: 0.29 µM.
On the same count and under the same terms, with `Cc1cc(C2CC2)cc(C)c1-n1cc2c(=O)[nH]c(C(=O)NCC(F)F)nc2n1` [Example 204] the figure was 0.05 µM; with `CCNC(=O)c1nc2nn(-c3c(C)cc(C4CC4)cc3C)cc2c(=O)[nH]1` [Example 205], 0.011 µM.
The same measure, in the same setting: the same measure for `CC(=O)c1nc2nn(-c3c(C)cc(C(C)(F)F)cc3C)cc2c(=O)[nH]1` [Example 206]: 0.36 µM; for `CNC(=O)c1nc2nn(-c3c(C)cc(C(C)(F)F)cc3C)cc2c(=O)[nH]1` [Example 207]: 0.27 µM; for `Cc1cc(C(C)(F)F)cc(C)c1-n1cc2c(=O)[nH]c(CCO)nc2n1` [Example 208]: 0.066 µM.
Turning to `Cc1cc(OC(F)F)cc(C)c1-n1cc2c(=O)[nH]c(CCO)nc2n1` [Example 209], the IC50 is 0.025 µM.
In the case of `COc1nc(C)nc2nn(-c3c(C)cc(Br)cc3C)cc12` [Example 210, 2-(4-bromo-2,6-dimethylphenyl)-4-methoxy-6-methyl-2H-pyrazolo[3,4-d]pyrimidine], 24 µM produced 9% inhibition (test compound at 24 µM).
As to `O=c1[nH]c(C2CC2)nc2nn(-c3cc4c(cc3Cl)OCCC4)cc12` [Example 211], the IC50 turned out to be 0.027 µM.

(Values after patent EP4671247A1, “SUBSTITUTED PYRAZOLOPYRIMIDINE COMPOUND AND PHARMACEUTICAL USE THEREOF” (Japan Tobacco Inc., priority 2023, dated 2024).)
